Assay results taken from US8846698B2, “Pyrrolo[2,3-d]pyrimidine tropomysin-related kinase inhibitors” (Pfizer Limited, priority 2011, dated 2014).

Target: TRKA (Homo sapiens (Human), UniProt P04629)
Assay: Isolated TRK enzyme assay (HTRF KinEASE-TK), TRKA
Format: biochemical
Details: read-out: Trka enzyme (IC50)

Chain of TRKA (P04629 441-796): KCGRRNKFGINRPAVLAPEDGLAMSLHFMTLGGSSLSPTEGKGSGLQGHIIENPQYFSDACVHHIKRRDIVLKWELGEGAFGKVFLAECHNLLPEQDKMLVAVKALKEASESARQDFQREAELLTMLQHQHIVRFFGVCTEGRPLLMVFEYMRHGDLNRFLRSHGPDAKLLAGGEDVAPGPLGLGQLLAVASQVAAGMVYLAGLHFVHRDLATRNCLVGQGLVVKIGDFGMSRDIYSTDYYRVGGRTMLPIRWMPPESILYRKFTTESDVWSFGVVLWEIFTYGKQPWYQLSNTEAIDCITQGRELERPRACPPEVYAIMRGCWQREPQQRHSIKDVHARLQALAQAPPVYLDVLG

Row | Compound | IC50
1 | CC(C)n1cc(C(=O)c2cncc(NC(=O)c3nnc4n3CCCC4)c2)c2cncnc21 [Example 503, 5,6,7,8-Tetrahydro-1,2,4-triazolo[4,3-a]pyridine-3-carboxylic acid [5-(7-isopropyl-7H-pyrrolo[2,3-d]pyrimidine-5-carbonyl)-pyridin-3-yl]-amide] | 963 nM
2 | Cc1nc(C(=O)Nc2cncc(C(=O)c3cn(C(C)C)c4ncncc34)c2)c(C(F)(F)F)o1 [Example 504, 2-Methyl-5-trifluoromethyl-oxazole-4-carboxylic acid [5-(7-isopropyl-7H-pyrrolo[2,3-d]pyrimidine-5-carbonyl)-pyridin-3-yl]-amide] | 1020 nM
3 | CC(C)n1cc(C(=O)c2cncc(NC(=O)c3cnc4cc[nH]c4c3)c2)c2cncnc21 [Example 505, 1H-Pyrrolo[3,2-b]pyridine-6-carboxylic acid [5-(7-isopropyl-7H-pyrrolo[2,3-d]pyrimidine-5-carbonyl)-pyridin-3-yl]-amide] | 1630 nM
4 | CC(C)n1cc(C(=O)c2cncc(NC(=O)c3ccc4cnnc-4[nH]3)c2)c2cncnc21 [Example 506, Pyrazolo[3,4-b]pyridine-6-carboxylic acid [5-(7-isopropyl-7H-pyrrolo[2,3-d]pyrimidine-5-carbonyl)-pyridin-3-yl]-amide] | 67 nM
5 | CC(C)n1cc(C(=O)c2cncc(NC(=O)c3[nH]nc4ccccc34)c2)c2cncnc21 [Example 507, 2H-Indazole-3-carboxylic acid [5-(7-isopropyl-7H-pyrrolo[2,3-d]pyrimidine-5-carbonyl)-pyridin-3-yl]-amide] | 5.45 nM
6 | Cc1noc2ncc(C(=O)Nc3cncc(C(=O)c4cn(C(C)C)c5ncncc45)c3)cc12 [Example 508, 3-Methyl-isoxazolo[5,4-b]pyridine-5-carboxylic acid [5-(7-isopropyl-7H-pyrrolo[2,3-d]pyrimidine-5-carbonyl)-pyridin-3-yl]-amide] | 1630 nM
7 | CC(C)n1cc(C(=O)c2cncc(NC(=O)c3ccnnc3)c2)c2cncnc21 [Example 509, Pyridazine-4-carboxylic acid [5-(7-isopropyl-7H-pyrrolo[2,3-d]pyrimidine-5-carbonyl)-pyridin-3-yl]-amide] | 9800 nM

Other lines, results leading:

Row | IC50 | Compound
8 | 249 nM | CC(C)n1cc(C(=O)c2cncc(NC(=O)c3cc4c(cn3)OCCO4)c2)c2cncnc21 [Example 510, 2,3-Dihydro-1,4-dioxino[2,3-c]pyridine-7-carboxylic acid [5-(7-isopropyl-7H-pyrrolo[2,3-d]pyrimidine-5-carbonyl)-pyridin-3-yl]-amide]
9 | 144 nM | CC(C)n1cc(C(=O)c2cncc(NC(=O)c3n[nH]c4ncccc34)c2)c2cncnc21 [Example 511, 1H-Pyrazolo[3,4-b]pyridine-3-carboxylic acid [5-(7-isopropyl-7H-pyrrolo[2,3-d]pyrimidine-5-carbonyl)-pyridin-3-yl]-amide]
10 | 12.6 nM | CC(C)n1cc(C(=O)c2cncc(NC(=O)c3n[nH]c4ccc(F)cc34)c2)c2cncnc21 [Example 512, 5-Fluoro-1H-indazole-3-carboxylic acid [5-(7-isopropyl-7H-pyrrolo[2,3-d]pyrimidine-5-carbonyl)-pyridin-3-yl]-amide]
11 | 1890 nM | Cc1cc(C(=O)Nc2cncc(C(=O)c3cn(C(C)C)c4ncncc34)c2)n(C)n1 [Example 513, 2,5-Dimethyl-2H-pyrazole-3-carboxylic acid [5-(7-isopropyl-7H-pyrrolo[2,3-d]pyrimidine-5-carbonyl)-pyridin-3-yl]-amide]
12 | 9800 nM | CC(C)n1cc(C(=O)c2cncc(NC(=O)c3ccnc4ncsc34)c2)c2cncnc21 [Example 514, Thiazolo[4,5-b]pyridine-7-carboxylic acid [5-(7-isopropyl-7H-pyrrolo[2,3-d]pyrimidine-5-carbonyl)-pyridin-3-yl]-amide]
13 | 1140 nM | CC(C)n1cc(C(=O)c2cncc(NC(=O)c3cn4nc(Cl)ccc4n3)c2)c2cncnc21 [Example 515, 6-Chloro-imidazo[1,2-b]pyridazine-2-carboxylic acid [5-(7-isopropyl-7H-pyrrolo[2,3-d]pyrimidine-5-carbonyl)-pyridin-3-yl]-amide]
